Data published in the supplement of paper PMC10307832.

What was measured:
Assay in all cases: relative viability (nuclei count vs DMSO), 5 days (fraction); higher = more cells survive
Avagacestat + Decitabine = compound: NC(=O)[C@@H](CCC(F)(F)F)N(Cc1ccc(-c2ncon2)cc1F)S(=O)(=O)c1ccc(Cl)cc1 [Avagacestat] + Nc1ncn([C@H]2C[C@H](O)[C@@H](CO)O2)c(=O)n1 [Decitabine] (partner 2 µM)
Outline: (§1)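 Lung cancer cell lines, seeded in 1536-well plates, were treated the following day by pin tool with a single drug or with five library-drug doses (not always all listed) in √10 steps on top of a fixed anchor-drug dose. Cells were fixed and nuclei stained in one step after 5 days, and nuclei were counted. Relative viability is the nuclei count for treated wells divided by that for vehicle wells, reported as medians of duplicate plates.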

Avagacestat + Crizotinib = compound: NC(=O)[C@@H](CCC(F)(F)F)N(Cc1ccc(-c2ncon2)cc1F)S(=O)(=O)c1ccc(Cl)cc1 [Avagacestat] + C[C@@H](Oc1cc(-c2cnn(C3CCNCC3)c2)cnc1N)c1c(Cl)ccc(F)c1Cl [Crizotinib] (partner 1 µM)
Outline: as §1

Avagacestat + Phenformin = compound: NC(=O)[C@@H](CCC(F)(F)F)N(Cc1ccc(-c2ncon2)cc1F)S(=O)(=O)c1ccc(Cl)cc1 [Avagacestat] + N=C(N)NC(=N)NCCc1ccccc1 [Phenformin] (partner 250 µM)
Outline: as §1

Avagacestat + Navitoclax = compound: NC(=O)[C@@H](CCC(F)(F)F)N(Cc1ccc(-c2ncon2)cc1F)S(=O)(=O)c1ccc(Cl)cc1 [Avagacestat] + CC1(C)CCC(c2ccc(Cl)cc2)=C(CN2CCN(c3ccc(C(=O)NS(=O)(=O)c4ccc(N[C@H](CCN5CCOCC5)CSc5ccccc5)c(S(=O)(=O)C(F)(F)F)c4)cc3)CC2)C1 [Navitoclax] (partner 0.5 µM)
Outline: as §1

Cell Line	relative viability (Avagacestat + Decitabine; first compound 0.08 µM)	relative viability (Avagacestat + Decitabine; first compound 0.253 µM)	relative viability (Avagacestat + Decitabine; first compound 0.8 µM)	relative viability (Avagacestat + Decitabine; first compound 2.53 µM)	relative viability (Avagacestat + Decitabine; first compound 8 µM)	relative viability (Avagacestat + Crizotinib; first compound 0.08 µM)	relative viability (Avagacestat + Crizotinib; first compound 0.253 µM)	relative viability (Avagacestat + Crizotinib; first compound 0.8 µM)	relative viability (Avagacestat + Crizotinib; first compound 2.53 µM)	relative viability (Avagacestat + Crizotinib; first compound 8 µM)	relative viability (Avagacestat + Phenformin; first compound 0.08 µM)	relative viability (Avagacestat + Phenformin; first compound 0.253 µM)	relative viability (Avagacestat + Phenformin; first compound 0.8 µM)	relative viability (Avagacestat + Phenformin; first compound 2.53 µM)	relative viability (Avagacestat + Phenformin; first compound 8 µM)	relative viability (Avagacestat + Navitoclax; first compound 0.08 µM)	relative viability (Avagacestat + Navitoclax; first compound 0.253 µM)	relative viability (Avagacestat + Navitoclax; first compound 0.8 µM)	relative viability (Avagacestat + Navitoclax; first compound 2.53 µM)	relative viability (Avagacestat + Navitoclax; first compound 8 µM)
NCI-H727	0.889	0.815	1.06	0.836	0.875	0.986	0.956	1.08	0.946	0.775	0.684	0.489	0.778	0.421	0.613	0.408	0.461	0.596	0.339	0.459
NCI-H838	0.483	0.48	0.466	0.471	0.442	0.932	1.09	0.906	0.858	0.764	0.622	0.537	0.598	0.509	0.484	1.55	1.52	1.31	1.06	1.13
NCI-H1355	0.357	0.329	0.371	0.344	0.309	1.19	1.14	0.997	0.872	0.866	0.499	0.441	0.465	0.422	0.41	1.14	0.999	0.923	0.768	0.833
NCI-H1437	0.643	0.668	0.654	0.598	0.628	1.14	1.1	1.12	1.05	0.824	0.382	0.378	0.342	0.266	0.287	1.39	1.22	1.1	1.04	0.979
NCI-H1650	0.432	0.558	0.457	0.432	0.416	1.07	0.967	1.37	0.916	1.06	0.446	0.416	0.484	0.455	0.412	1.1	1.31	1.52	1.43	1.12
NCI-H1651	0.636	0.665	0.734	0.611	0.607	1	0.928	0.896	0.879	0.863	0.321	0.343	0.358	0.293	0.354	1.28	1.33	1.3	1.07	0.764
NCI-H1666	0.892	0.858	0.953	0.81	0.882	1.3	1.09	1.23	1.03	0.957	0.686	0.639	0.619	0.603	0.603	1.15	1.11	1.17	0.955	1.02
NCI-H1734	0.608	0.499	0.482	0.482	0.491	0.969	0.755	0.705	0.733	0.575	0.451	0.433	0.366	0.373	0.384	1.11	0.96	0.875	0.777	0.724
NCI-H1755	0.732	0.665	0.755	0.718	0.72	1.04	1.01	0.928	0.865	0.832	0.714	0.652	0.655	0.623	0.577	1.08	1.21	1.09	0.959	0.943
NCI-H1792	0.722	0.561	0.618	0.487	0.426	1.42	1.33	1.45	0.992	0.805	0.474	0.304	0.391	0.19	0.304	1.25	0.584	1.13	0.538	0.417
NCI-H1915	0.259	0.266	0.283	0.237	0.265	0.924	1.15	0.964	0.912	0.889	0.396	0.396	0.368	0.412	0.357	0.84	0.812	0.798	0.807	0.828
NCI-H1944	0.452	0.475	0.402	0.406	0.428	1.09	1.2	0.958	0.915	0.919	0.231	0.236	0.226	0.18	0.204	1.14	1.09	1.03	0.989	0.993
NCI-H1975	0.371	0.355	0.425	0.341	0.412	0.989	1.1	1.1	0.926	0.905	0.48	0.422	0.42	0.398	0.42	1.26	1.28	1.25	1.07	1.02
NCI-H1993	0.618	0.583	0.618	0.611	0.564	0.925	0.777	1.03	0.907	0.879	0.548	0.531	0.473	0.451	0.59	1.08	0.995	1.09	0.905	1.04
NCI-H2009	0.412	0.384	0.386	0.332	0.395	1.04	1.14	1.01	1.04	0.975	0.562	0.595	0.514	0.491	0.455	1.27	1.23	1.17	1.12	1.13
NCI-H2023	0.255	0.257	0.288	0.221	0.218	0.751	0.78	0.583	0.577	0.602	0.474	0.476	0.453	0.35	0.368	1.14	1.28	1.12	0.834	0.894
